One experiment has as its target IRAK4 (Homo sapiens (Human), UniProt Q9NWZ3). Put plainly: IRAK-4 AlphaScreen biochemical kinase assay. The following applies: 1 nM IRAK4, 1 mM ATP, 3.5 h at RT. The procedure, abridged: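 AlphaScreen read-out: streptavidin beads bind the biotinylated peptide and protein A beads bind the anti-phosphothreonine antibody, so energy transfer reports phosphorylation of the peptide. The kinase is human IRAK-4.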

A further experiment has as its system IL-6 in A549 cells. The experiment is described as follows: Cell-based IL-6 ELISA assay in IL-1beta stimulated A549 cells. The following applies: 2 ng/ml human IL-1beta overnight. On the procedure:
The cell-based assays is based on IL-6 ELISA quantification. Briefly, A549 cells are cultured in DMEM with 10% FBS medium. When cells reach 80% confluence they are trypsin treated and seeded 180 ul/well in 96-well plate at 2.5×10^4 cells/well. Then, 20 ul of compound serial dilutions (starting at 10 uM, 10 points) are added to the cell plate; incubate for 30 min at 37 C and stimulated with 2 ng/ml human IL-1beta 37 C, 5% CO2 overnight. The next day 100 ul of cell supernatant per well are analyzed on a Human IL-6 Quantikine ELISA kit from R&D Systems.
On the technique in general: In an ELISA, binding on a coated surface is turned into a signal by an enzyme label.

The values below come from US10246456B2, “IRAK4 inhibiting agents” (BIOGEN MA INC., priority 2014, dated 2019).

Each structure is given as a SMILES string. A value given as a limit tells only on which side of the number the result lay.

IRAK4, sequence (Q9NWZ3 whole entry, species assumed): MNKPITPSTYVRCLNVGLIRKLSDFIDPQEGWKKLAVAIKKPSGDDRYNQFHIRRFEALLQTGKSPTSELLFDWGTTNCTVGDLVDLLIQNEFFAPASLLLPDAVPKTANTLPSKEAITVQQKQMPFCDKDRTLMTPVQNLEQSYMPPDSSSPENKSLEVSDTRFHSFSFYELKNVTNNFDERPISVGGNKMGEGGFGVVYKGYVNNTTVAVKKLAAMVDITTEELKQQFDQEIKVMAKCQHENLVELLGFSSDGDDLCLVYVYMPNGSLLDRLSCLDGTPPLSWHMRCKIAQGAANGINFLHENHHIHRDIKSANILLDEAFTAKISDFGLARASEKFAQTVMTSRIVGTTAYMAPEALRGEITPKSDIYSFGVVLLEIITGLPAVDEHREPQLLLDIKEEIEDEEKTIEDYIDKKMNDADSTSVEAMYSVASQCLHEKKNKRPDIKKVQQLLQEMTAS

For the molecule `CC(O)c1cccc(-n2ncc3ccc(-c4cccc([C@H](C)N)n4)cc32)n1` (single isomer, unassigned) [Example 415], the IC50 – broadly, the concentration that inhibits the measured activity by half – at IRAK4 was 0.1 to 1 µM. Also, the EC50 (commonly the concentration that produces a half-maximal response) in the experiment on IL-6 in A549 cells is at most 1 µM.

At IRAK4, `CC(O)c1cccc(-n2ncc3ccc(-c4cccc([C@H](C)N)n4)cc32)n1` (single isomer, unassigned) [Example 416] had a 50% inhibitory concentration (IC50) below 0.1 µM. The molecule further returned a concentration for a half-maximal effect (EC50) in the experiment on IL-6 in A549 cells of at most 1 µM.

`CCC[C@H](N)c1cccc(-c2ccc3cnn(-c4cccc(C(C)O)n4)c3c2)n1` (single isomer, unassigned) [Example 418] had an IC50 against IRAK4 below 0.1 µM. Moreover, the half-maximal effective concentration (EC50) with IL-6 in A549 cells was at most 1 µM.

In the case of `CCCC(N)c1cccc(-c2ccc3cnn(-c4cccc(C(F)F)n4)c3c2)n1` (stereo in doubt) [Example 519, (S)-1-(6-(1-(6-(difluoromethyl)pyridin-2-yl)-1H-indazol-6-yl)pyridin-2-yl)butan-1-amine], the half-maximal inhibitory concentration (IC50) against IRAK4 is below 0.1 µM. The molecule also gave a concentration giving a half-maximal response (EC50) in the experiment on IL-6 in A549 cells of at most 1 µM.

In turn, `CC(N)c1cccc(-c2ccc3cnn(-c4cccc(C(F)F)n4)c3c2)n1` (stereo in doubt) [Example 529, (S)-1-(6-(1-(6-(difluoromethyl)pyridin-2-yl)-1H-indazol-6-yl)pyridin-2-yl)ethanamine] gave an IC50 against IRAK4 below 0.1 µM. In addition, the 50% effective concentration (EC50) in the experiment with IL-6 in A549 cells is at most 1 µM.

As to `CCC[C@H](N)c1cccc(-c2cc(N3CCCCC3)c3cnn(-c4cccc(CO)n4)c3c2)n1` [Example 324, (S)-(6-(6-(6-(1-aminobutyl)pyridin-2-yl)-4-(piperidin-1-yl)-1H-indazol-1-yl)pyridin-2-yl)methanol], in the experiment with IL-6 in A549 cells, the concentration giving a half-maximal response (EC50) is at most 1 µM.

`CCC[C@H](N)c1cccc(-c2cc(N3CCC(O)C3)c3cnn(-c4cccc(CO)n4)c3c2)n1` (stereo partly drawn) [Example 325, 1-(6-(6-((S)-1-aminobutyl)pyridin-2-yl)-1-(6-(hydroxymethyl)pyridin-2-yl)-1H-indazol-4-yl)pyrrolidin-3-ol] registered an IC50 at IRAK4 below 0.1 µM. Further, the EC50 with IL-6 in A549 cells is at most 1 µM.

The molecule `CCC[C@H](N)c1cccc(-c2cc(N3CCCC3CO)c3cnn(-c4cccc(CO)n4)c3c2)n1` (stereo partly drawn) [Example 326, (1-(6-(6-((S)-1-aminobutyl)pyridin-2-yl)-1-(6-(hydroxymethyl)pyridin-2-yl)-1H-indazol-4-yl)pyrrolidin-2-yl)methanol] returned an IC50 on IRAK4 below 0.1 µM. This molecule also showed an EC50 in the experiment on IL-6 in A549 cells of at most 1 µM.

Regarding `CCC[C@H](N)c1cccc(-c2cc(N3CCOCC3)c3cnn(-c4cccc(CO)n4)c3c2)n1` [Example 339, (S)-(6-(6-(6-(1-aminobutyl)pyridin-2-yl)-4-morpholino-1H-indazol-1-yl)pyridin-2-yl)methanol], the EC50 with IL-6 in A549 cells is at most 1 µM.

In turn, `CCC[C@H](N)c1cccc(-c2cc(N3CCC3)c3cnn(-c4cccc(CO)n4)c3c2)n1` [Example 345, (S)-(6-(6-(6-(1-aminobutyl)pyridin-2-yl)-4-(azetidin-1-yl)-1H-indazol-1-yl)pyridin-2-yl)methanol] registered a concentration for a half-maximal effect (EC50) in the experiment on IL-6 in A549 cells of at most 1 µM.

In the experiment with IL-6 in A549 cells, `CCc1cccc(-c2cc(-c3nnc(C)o3)c3cnn(-c4cccc(CO)n4)c3c2)n1` [Example 358, (6-(6-(6-ethylpyridin-2-yl)-4-(5-methyl-1,3,4-oxadiazol-2-yl)-1H-indazol-1-yl)pyridin-2-yl)methanol] yielded an EC50 of at most 1 µM.

For the molecule `CCC[C@H](N)c1cccc(-c2cc(C3=CCN(C)CC3)c3cnn(-c4cccc(CO)n4)c3c2)n1` [Example 423, (S)-(6-(6-(6-(1-aminobutyl)pyridin-2-yl)-4-(1-methyl-1,2,3,6-tetrahydropyridin-4-yl)-1H-indazol-1-yl)pyridin-2-yl)methanol], the half-maximal effective concentration (EC50) in the experiment on IL-6 in A549 cells is at most 1 µM.

In the experiment on IL-6 in A549 cells, `C[C@H](N)c1cccc(-c2cc(F)c3cnn(-c4cccc(CO)n4)c3c2)n1` [Example 475, (6-{6-[6-((S)-1-Amino-ethyl)-pyridin-2-yl]-4-fluoro-indazol-1-yl}-pyridin-2-yl)-methanol] came in with an EC50 of at most 1 µM.

As for `CCC(O)C(N)c1cccc(-c2ccc3cnn(-c4cccc(CO)n4)c3c2)n1` (stereo not shown) [Example 516, 1-amino-1-(6-(1-(6-(hydroxymethyl)pyridin-2-yl)-1H-indazol-6-yl)pyridin-2-yl)butan-2-ol], in the experiment on IL-6 in A549 cells, the EC50 was at most 1 µM.

The molecule `CC(O)CC(N)c1cccc(-c2ccc3cnn(-c4cccc(CO)n4)c3c2)n1` (stereo not shown) [Example 525, 4-amino-4-(6-(1-(6-(hydroxymethyl)pyridin-2-yl)-1H-indazol-6-yl)pyridin-2-yl)butan-2-ol] gave an EC50 in the experiment with IL-6 in A549 cells of at most 1 µM.

Molecule `CCCC[C@H](N)c1ccnc(-c2ccc3cnn(-c4cccc(CO)n4)c3c2)n1` [Example 580, (S)-(6-(6-(4-(1-aminopentyl)pyrimidin-2-yl)-1H-indazol-1-yl)pyridin-2-yl)methanol] had an IC50 against IRAK4 below 0.1 µM.

Molecule `N#CC[C@@H](N)c1cccc(-c2ccc3cnn(-c4cccc(CO)n4)c3c2)n1` [Example 581, (R)-3-amino-3-(6-(1-(6-(hydroxymethyl)pyridin-2-yl)-1H-indazol-6-yl)pyridin-2-yl)propanenitrile] displayed an IC50 against IRAK4 of 0.1 to 1 µM.

Turning to `CCC[C@H](N)c1cccc(-c2cc(-c3ncc(C)o3)c3cnn(-c4cccc(CO)n4)c3c2)n1` [Example 582, (S)-(6-(6-(6-(1-aminobutyl)pyridin-2-yl)-4-(5-methyloxazol-2-yl)-1H-indazol-1-yl)pyridin-2-yl)methanol], at IRAK4, the IC50 was below 0.1 µM.

`CCC[C@H](N)c1ccnc(-c2cc(OCC)c3cnn(-c4cccc(CO)n4)c3c2)n1` [Example 583, (S)-(6-(6-(4-(1-aminobutyl)pyrimidin-2-yl)-4-ethoxy-1H-indazol-1-yl)pyridin-2-yl)methanol]: on IRAK4, the IC50 was below 0.1 µM.

In turn, `CCC[C@@H](N)c1ccnc(-c2cc(OCC)c3cnn(-c4cccc(CO)n4)c3c2)n1` [Example 584, (R)-(6-(6-(4-(1-aminobutyl)pyrimidin-2-yl)-4-ethoxy-1H-indazol-1-yl)pyridin-2-yl)methanol] came in with an IC50 on IRAK4 below 0.1 µM.

`CCC[C@H](N)c1cccc(-c2cc(C(CO)CCl)c3cnn(-c4cccc(CO)n4)c3c2)n1` (stereo partly drawn) [Example 585, 2-(6-(6-((S)-1-aminobutyl)pyridin-2-yl)-1-(6-(hydroxymethyl)pyridin-2-yl)-1H-indazol-4-yl)-3-chloropropan-1-ol] returned an IC50 against IRAK4 of 0.1 to 1 µM.

The molecule `COCCOc1cc(-c2cccc([C@H](C)N)n2)cc2c1cnn2-c1cccc(CO)n1` [Example 586, (S)-(6-(6-(6-(1-aminoethyl)pyridin-2-yl)-4-(2-methoxyethoxy)-1H-indazol-1-yl)pyridin-2-yl)methanol] yielded a concentration for half-maximal inhibition (IC50) against IRAK4 below 0.1 µM.

At IRAK4, `CC[C@H](N)c1cccc(-c2cc(OCCOC)c3cnn(-c4cccc(CO)n4)c3c2)n1` [Example 587, (S)-(6-(6-(6-(1-aminopropyl)pyridin-2-yl)-4-(2-methoxyethoxy)-1H-indazol-1-yl)pyridin-2-yl)methanol] displayed an IC50 below 0.1 µM.

`COCCOc1cc(-c2cccc([C@@H](N)C3CC3)n2)cc2c1cnn2-c1cccc(CO)n1` [Example 588, (S)-(6-(6-(6-(amino(cyclopropyl)methyl)pyridin-2-yl)-4-(2-methoxyethoxy)-1H-indazol-1-yl)pyridin-2-yl)methanol] displayed an IC50 at IRAK4 below 0.1 µM.

`N[C@@H](CF)c1cccc(-c2ccc3cnn(-c4cccc(CO)n4)c3c2)n1` [Example 589, (R)-(6-(6-(6-(1-amino-2-fluoroethyl)pyridin-2-yl)-1H-indazol-1-yl)pyridin-2-yl)methanol] gave a half-inhibitory concentration (IC50) on IRAK4 below 0.1 µM.

The molecule `CCC[C@H](N)c1cccc(-c2ccc3cnn(-c4cncc(C)n4)c3c2)n1` [Example 590, (S)-1-(6-(1-(6-methylpyrazin-2-yl)-1H-indazol-6-yl)pyridin-2-yl)butan-1-amine] had an IC50 against IRAK4 below 0.1 µM.

In turn, `N#CC[C@H](N)c1cccc(-c2ccc3cnn(-c4cccc(CO)n4)c3c2)n1` [Example 591, (S)-3-amino-3-(6-(1-(6-(hydroxymethyl)pyridin-2-yl)-1H-indazol-6-yl)pyridin-2-yl)propanenitrile] showed an IC50 at IRAK4 below 0.1 µM.

Turning to `N#CCC[C@H](N)c1cccc(-c2ccc3cnn(-c4cccc(CO)n4)c3c2)n1` [Example 592, (S)-4-amino-4-(6-(1-(6-(hydroxymethyl)pyridin-2-yl)-1H-indazol-6-yl)pyridin-2-yl)butanenitrile], the IC50 against IRAK4 is below 0.1 µM.

`COCCOc1cc(-c2cccc([C@@H](N)CF)n2)cc2c1cnn2-c1cccc(CO)n1` [Example 594, (R)-(6-(6-(6-(1-amino-2-fluoroethyl)pyridin-2-yl)-4-(2-methoxyethoxy)-1H-indazol-1-yl)pyridin-2-yl)methanol]: on IRAK4, the IC50 is below 0.1 µM.

`CCC[C@H](N)c1ccnc(-c2cc(OCCOC)c3cnn(-c4cccc(CO)n4)c3c2)n1` [Example 595, (S)-(6-(6-(4-(1-aminobutyl)pyrimidin-2-yl)-4-(2-methoxyethoxy)-1H-indazol-1-yl)pyridin-2-yl)methanol] showed a concentration for half-maximal inhibition (IC50) at IRAK4 below 0.1 µM.

`CCC[C@@H](N)c1ccnc(-c2cc(OCCOC)c3cnn(-c4cccc(CO)n4)c3c2)n1` [Example 596, (R)-(6-(6-(4-(1-aminobutyl)pyrimidin-2-yl)-4-(2-methoxyethoxy)-1H-indazol-1-yl)pyridin-2-yl)methanol]: the IC50 against IRAK4 is below 0.1 µM.

Molecule `CCC[C@H](N)c1cccc(-c2cc(C3CCOC3)c3cnn(-c4cccc(CO)n4)c3c2)n1` (stereo partly drawn) [Example 597, (6-(6-(6-((S)-1-aminobutyl)pyridin-2-yl)-4-(tetrahydrofuran-3-yl)-1H-indazol-1-yl)pyridin-2-yl)methanol] registered an IC50 against IRAK4 below 0.1 µM.

At IRAK4, `CCC[C@H](N)c1cccc(-c2cc(OCC3CC(F)(F)C3)c3cnn(-c4cccc(CO)n4)c3c2)n1` [Example 598, (S)-(6-(6-(6-(1-aminobutyl)pyridin-2-yl)-4-((3,3-difluorocyclobutyl)methoxy)-1H-indazol-1-yl)pyridin-2-yl)methanol] returned an IC50 below 0.1 µM.
